Data set [1] has as its system chronic lymphocytic leukemia (CLL) cells. The data set can be described thus: viability/apoptosis of CLL cells electroporated with peptides (Annexin V-FITC/PI flow cytometry). Format: cell-based, human. The settings on record: for cell viability (Induction of Apoptosis in CLL Cells), patient sample JCB 178: CLL patient sample JCB 178; for cell viability (Induction of Apoptosis in CLL Cells), patient sample JCB 178 / cell viability (Induction of Apoptosis in CLL Cells), patient sample MA G15 / cell viability (Induction of Apoptosis in CLL Cells), patient sample TJK 328 / cell viability (Induction of Apoptosis in CLL Cells), patient sample TJK 340 #1 / cell viability (Induction of Apoptosis in CLL Cells), patient sample TJK 340 #2 / cell viability (Induction of Apoptosis in CLL Cells), patient sample TJK 375 / cell viability (Induction of Apoptosis in CLL Cells), Av.: peptide electroporated; for cell viability (Induction of Apoptosis in CLL Cells), patient sample TJK 328: CLL patient sample TJK 328; for cell viability (Induction of Apoptosis in CLL Cells), patient sample TJK 340 #1: CLL patient sample TJK 340 #1; for cell viability (Induction of Apoptosis in CLL Cells), patient sample TJK 340 #2: CLL patient sample TJK 340 #2; for cell viability (Induction of Apoptosis in CLL Cells), patient sample TJK 375: CLL patient sample TJK 375; for cell viability (Induction of Apoptosis in CLL Cells), Av.: average of the five preceding patient sample columns; for cell viability of CLL cells / cell viability in all the patient CLL samples: electroporated peptide; for cell viability of CLL cells: FIG. 2; for cell viability in all the patient CLL samples: summary of Table 4. From the text:
Peripheral blood mononuclear cells (PBMC) from patients with chronic lymphocytic leukemia (CLL) were obtained from the CLL Research Consortium (CRC) tissue bank. Briefly, heparinized peripheral blood was obtained from patients diagnosed with B-CLL according to standard criteria (Chenson et al., Blood 87:4990-4997 (1996)). Lymphocytes were isolated by Ficoll density-gradient centrifugation and verified by immunofluorescence flow cytometry to be composed of greater than 95% CD5/CD19/CD23 triple positive B cells. […] CLL cells were electroporated with a dimethyl sulfoxide (DMSO) control or peptides essentially as described in […] et al., J. Immunol. Methods 275:41-56 (2003), and […] et al., Cancer Res. 63:1242-1248 (2003). For evaluation of apoptosis, at least 5×10^5 cells were recovered by centrifugation and double-stained with Annexin V-FITC, an early marker of apoptosis, and propidium iodide (PI), a nucleic acid-binding vital dye, followed by flow-cytometric analysis using the FL-1 and FL-3 channels of a Becton Dickinson flow cytometer (FACSort; San Jose, Calif.).

In data set [2] the target is BCL-2 (Homo sapiens, UniProt P10415). The settings on record: Letai et al., Cancer Cell 2:183-192 (2002); cited from earlier work.
Sequence of BCL-2 (P10415 whole entry, species assumed): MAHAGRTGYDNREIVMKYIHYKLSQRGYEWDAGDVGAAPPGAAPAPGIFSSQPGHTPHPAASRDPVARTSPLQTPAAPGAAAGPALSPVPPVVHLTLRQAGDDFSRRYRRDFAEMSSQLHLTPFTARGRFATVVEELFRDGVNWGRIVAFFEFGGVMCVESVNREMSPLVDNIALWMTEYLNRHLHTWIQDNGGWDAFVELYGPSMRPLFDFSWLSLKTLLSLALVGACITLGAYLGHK
For data set [3] the following is noted: Letai et al., Cancer Cell 2:183-192 (2002); cited from earlier work.
Data set [4] addresses T1, GST-Bcl2(1-205) (Homo sapiens, UniProt P10415).
T1 construct: 50 ng GST-Bcl2(1-205; Santa Cruz Biotechnology; Santa Cruz, Calif.); purchased Santa Cruz Biotechnology
As to the kind of experiment: competition ELISA for binding of BAD peptides to Bcl-2. To be noted: FIG. 1. The method, then:
To determine binding affinity to Bcl-2, competition ELISA assays were performed essentially as described in Cabezas et al., supra, 2001, with the following components. Briefly, acetyl-Cys(biotin-BMCC)-Ahx-Bad peptide (50 ng peptide/50 μl ELISA buffer) was adsorbed to 96-well neutraAvidin coated microtiter plates. Competition peptides were subsequently mixed with 50 ng GST-Bcl2(1-205; Santa Cruz Biotechnology; Santa Cruz, Calif.) in 50 μl ELISA buffer per titer well and incubated for one hour at 37° C. Wells were washed and treated with 50 μl of a 1/4000 dilution of anti-GST Mab 7E5 (from ascites fluid provided by Shinichi Kitada) in ELISA buffer for one hour at 37° C. Quantification of peptide-bound GST-Bcl2/Mab7E5 complex was carried out with alkaline-phosphatase-conjugated goat […] and p-nitrophenylphosphate substrate as described in Cabezas et al., supra, 2001.
Background: An ELISA detects its analyte on a solid surface through an enzyme-linked reagent.

Data set [5] deals with 697-neo cells. As to the kind of experiment: cell viability assay in 697-neo cells. The format is cell-based. The settings on record: low Bcl-2, FIG. 6. The protocol: (§1) The peptides were tested in cell viability assays essentially as described above in Examples I and II. Experiments were carried out in 697-neo and 697-Bcl-2 cells. 697 cells are from a cell line of preB leukemic cells. 697-Bcl-2 cells have been engineered to express high levels of Bcl-2. AML-349 and AML-728 are myeloblasts (verified by FACS analysis via CD34-positivity) that were isolated from respective patients with acute myelogenous leukemia (AML).

In data set [6] the test system is 697-Bcl-2 cells. The data set can be described thus: cell viability assay in 697-Bcl-2 cells. The format is cell-based. To be noted: 697-Bcl2 cells with higher levels of Bcl-2, FIG. 6 and 7. The protocol: as §1
In data set [7] the test system is acute myelogenous leukemia (AML) cells. As to the kind of experiment: cell viability/apoptosis in patient AML cells. Format: cell-based, human. The protocol:
as §1

Data set [8] addresses Bcl-2 family Bcl-2/x1 (Homo sapiens, UniProt P10415). The data set can be described thus: binding of penetratin-linked peptides to Bcl-2 (method not described).

Bridges are numbered along the chain shown (N, C = ends). Roman numbers before positions name the chains, in order. Where no end group is shown, it is not given here.

The text below walks through data of patent US20060198832A1, “Peptide drugs for chronic lymphocytic leukemia (CLL) and other cancers” (priority 2004, published 2006).

T1 sequence (P10415 1-205): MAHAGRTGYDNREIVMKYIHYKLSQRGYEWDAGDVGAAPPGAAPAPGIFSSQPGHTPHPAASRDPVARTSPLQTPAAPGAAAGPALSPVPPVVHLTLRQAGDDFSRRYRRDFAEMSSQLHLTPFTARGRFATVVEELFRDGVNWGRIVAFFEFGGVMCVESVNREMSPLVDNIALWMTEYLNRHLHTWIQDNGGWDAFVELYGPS
Sequence of Bcl-2 family Bcl-2/x1 (P10415 1-205): as above

`CSCC[C@H](NC(=O)[C@H](CCCNC(=N)N)NC(=O)[C@H](CCCNC(=N)N)NC(=O)[C@H](CC(C)C)NC(=O)[C@H](CCC(=O)O)NC(=O)[C@H](CCCNC(=N)N)NC(=O)CNC(=O)[C@H](Cc1ccc(O)cc1)NC(=O)[C@H](CCCNC(=N)N)NC(=O)[C@H](CCC(N)=O)NC(=O)[C@H](C)NC(=O)[C@H](C)NC(=O)[C@H](Cc1c[nH]c2ccccc12)NC(=O)[C@H](CC(C)C)NC(=O)[C@@H](N)CC(N)=O)C(=O)N[C@@H](CO)C(=O)N[C@@H](CC(=O)O)C(=O)N[C@@H](CCC(=O)O)C(=O)N[C@@H](Cc1ccccc1)C(=O)N[C@H](C(=O)N[C@@H](CC(=O)O)C(=O)N[C@@H](CO)C(=O)N[C@@H](Cc1ccccc1)C(=O)N[C@@H](CCCCN)C(=O)N[C@@H](CCCCN)C(=O)O)C(C)C` [SEQ ID NO: 1]: in data set [1], the cell viability (Induction of Apoptosis in CLL Cells), patient sample JCB 178 came out at 45%; the cell viability (Induction of Apoptosis in CLL Cells), patient sample MA G15 came to 4%; the cell viability (Induction of Apoptosis in CLL Cells), patient sample TJK 328 was 42%; the cell viability (Induction of Apoptosis in CLL Cells), patient sample TJK 340 #1 is 46%. In data set [1], the cell viability (Induction of Apoptosis in CLL Cells), patient sample TJK 340 #2 was determined as 56%; the cell viability (Induction of Apoptosis in CLL Cells), patient sample TJK 375 came out at 47%; the cell viability (Induction of Apoptosis in CLL Cells), Av. turned out to be 47%; the “cell viability of CLL cells” value is on record as “minimal or insignificant changes in viability”. Besides, in data set [1], the “cell viability in all the patient CLL samples” value is given as “minimally effected”. Moreover, the Kd – broadly, the free concentration of one partner at which half of the binding sites on the other are occupied at equilibrium, for simple one-to-one binding – in data set [2] was ~40 nM. Also, in data set [3], the apoptotic activity entry is listed as “does not have apoptotic activity”.
Take “NLWAAQRYGRELRRMADEFVDAFKK [SEQ ID NO: 2]”: the “binding affinity for Bcl-2 compared to wild type BAD peptide” value in data set [4] is listed as “significantly higher binding affinity for Bcl-2 than the wild type BAD peptide”. In data set [1], this compound displayed a cell viability (Induction of Apoptosis in CLL Cells), patient sample JCB 178 of 12%; a cell viability (Induction of Apoptosis in CLL Cells), patient sample MA G15 of 2%; a cell viability (Induction of Apoptosis in CLL Cells), patient sample TJK 328 of 10%; a cell viability (Induction of Apoptosis in CLL Cells), patient sample TJK 340 #1 of 12%. Further, in data set [1], the cell viability (Induction of Apoptosis in CLL Cells), patient sample TJK 340 #2 was found to be 12%; the cell viability (Induction of Apoptosis in CLL Cells), patient sample TJK 375 amounted to 22%; the cell viability (Induction of Apoptosis in CLL Cells), Av. is 14%; the “cell viability of CLL cells” value is recorded as “significantly reduced”. The “cell viability in all the patient CLL samples” value in data set [1] is given as “dramatically reduced”.
As for “acetyl-NLWAAQRYGRELRRMADEFVDAFKKC-CRQIKIWFQNRRMKWKK-amide [2335] (peptide 1 Ac-NLWAAQRYGRELRRMADEFVDAFKKC; peptide 2 CRQIKIWFQNRRMKWKK-NH2; disulfide I:26-II:1) [compound 2335, Bad 2Ser/Ala peptide disulfide linked to penetratin-1]”, the “activity in reducing cell viability” value in data set [5] is on record as “more active in 697-neo cells with low Bcl-2 than a 2336 control peptide”. Moreover, in data set [6], the “amount of peptide needed to kill cells” value is recorded as “it takes more 2335 to kill 697 cells with higher levels of Bcl-2”. In data set [7] (AML cells of patient AML-349, FIG. 9), the “induction of apoptosis / killing” value is listed as “induced apoptosis”. The induction of apoptosis result in data set [7] (AML cells of patient AML-728, FIG. 8) was “induced apoptosis”. Further, the “binding to Bcl-2” value in data set [8] was “binds Bcl-2”.
